Values quoted from earlier work in patent publication US20040243224A1, “Methods and compositions for inhibiting narrowing in mammalian vascular pathways” (Medtronic Vascular, Inc., priority 2003, published 2004).

Experiments:
Details in all cases: stated as known in the art, no data
Tetrahymena furgasoni = system: Tetrahymena furgasoni
Ustilago maydis = system: Ustilago maydis
[1] = system: laboratory tumor cell lines

## COc1cc(O)c2c(c1)[C@H]1O[C@@H]1C[C@H](O)[C@H](O)C(=O)/C=C\C[C@H](C)OC2=O [Hypothemycin, hypothemycin]
Tetrahymena furgasoni
  activity against Tetrahymena furgasoni: active
Ustilago maydis
  activity against Ustilago maydis: active
[1]
  anti-tumor activity on laboratory tumor cell lines: exhibits anti-tumor activity
